The values below come from the supplement of paper PMC11208160.

This data set is described as follows: recombinant barcode read abundance after kanamycin selection (control-corrected) (log10(CPM+1)); higher = more efficient recombination; sequences stand for … in AGTGCAGAGAAAATCGGCCAGTTTTCTCTGCCTGCAGTCCGCATGCCGT…AGATTTATGCAGCGGACTGCCTTTCTCCCAAAGTGATAAACCGGACAGTATCATGGACCGGTTTTCCCGGTAATCCGTATTTGCAAGGTTGGTTTCACT; site = the 11-nt target. As to the method: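 Pooled E. coli target-specificity screen for the IS621 bridge recombinase. Each library plasmid pairs an 11-nt target (CT core) with a bridge RNA whose target-binding loop (9-nt LTG + 4-nt RTG) is reprogrammed; the rest of the 177-nt WT IS621 bridge RNA scaffold is fixed. The plasmid is co-electroporated with a WT donor plasmid; recombinase is induced with 0.1 mM IPTG and recombinants are selected on kanamycin. Recombinant barcodes are sequenced, converted to CPM, averaged over two biological replicates and corrected by the unselected control CPM. Molecule = full bridge RNA written as DNA: LTG = specificity nt 1-9, RTG = reverse complement of specificity nt 8-11, in the WT scaffold.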
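Also: IS621 recombinase and bridge RNA in Escherichia coli cells.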

Consider “ACGCTAGCTTGGGTTCTAACCTGTTGCCT (site CCGCTAGCTAG)”, for which the “recombinant barcode read abundance (log10)” value was 0.138.

For the sequence “ACGCTAGCTTGGGTTCTAACCTGTTGCCT (site GCGCTAGCTAG)”, the “recombinant barcode read abundance (log10)” value worked out at 0.226.

For the sequence “ACGCTAGCTTGGGTTCTAACCTGTTGCCT (site TCGCTAGCTAG)”, the “recombinant barcode read abundance (log10)” value worked out at 0.0462.

Regarding “ACGCTGGCTTGGGTTCTAACCTGTTGCCT (site ACACTGGCTAG)”, the “recombinant barcode read abundance (log10)” value amounted to 0.386.

Turning to “ACGCTGGCTTGGGTTCTAACCTGTTGCCT (site ACCCTGGCTAG)”, the “recombinant barcode read abundance (log10)” value was determined as 0.0594.

Turning to “ACGCTGGCTTGGGTTCTAACCTGTTGCCT (site ACGCTGGCTAG)”, the “recombinant barcode read abundance (log10)” value turned out to be 0.381.

With “ACGCTGGCTTGGGTTCTAACCTGTTGCCT (site ACTCTGGCTAG)”, the “recombinant barcode read abundance (log10)” value stood at 0.0925.

Consider “ACGGGATCTTGGGTTCTAACCTGTTGCCT (site ACGGGATCTAG)”, for which the “recombinant barcode read abundance (log10)” value came to 1.57.

“ACGGGATCTTGGGTTCTAACCTGTTGCCT (site CCGGGATCTAG)”: the “recombinant barcode read abundance (log10)” value amounted to 0.24.

“ACGGGATCTTGGGTTCTAACCTGTTGCCT (site GCGGGATCTAG)”: the “recombinant barcode read abundance (log10)” value was determined as 0.129.

For “ACGGGATCTTGGGTTCTAACCTGTTGCCT (site TCGGGATCTAG)”, the “recombinant barcode read abundance (log10)” value worked out at 0.0975.

As to “ACGGGTCCTTGGGTTCTAACCTGTTGCAG (site ACGGGTCCTCT)”, the “recombinant barcode read abundance (log10)” value came to 3.09.

Regarding “ACGGGTCCTTGGGTTCTAACCTGTTGCAG (site GGCAAGGCTAG)”, the “recombinant barcode read abundance (log10)” value stood at 0.0641.

As to “ACGGGTTCTTGGGTTCTAACCTGTTGCCT (site ACGGGTTCTAG)”, the “recombinant barcode read abundance (log10)” value stood at 2.46.

With “ACGGGTTCTTGGGTTCTAACCTGTTGCCT (site TCCGGTTCTAG)”, the “recombinant barcode read abundance (log10)” value was determined as 0.107.

Take “ACGGTCACTTGGGTTCTAACCTGTTGCCT (site AAGGTCACTAG)”: the “recombinant barcode read abundance (log10)” value is 0.331.

As for “ACGGTCACTTGGGTTCTAACCTGTTGCCT (site ACGGTCACTAG)”, the “recombinant barcode read abundance (log10)” value stood at 2.95.

Regarding “ACGGTCACTTGGGTTCTAACCTGTTGCCT (site AGGGTCACTAG)”, the “recombinant barcode read abundance (log10)” value was determined as 0.264.

Turning to “ACGGTCACTTGGGTTCTAACCTGTTGCCT (site ATGGTCACTAG)”, the “recombinant barcode read abundance (log10)” value came to 0.869.

For “ACGGTGACTTGGGTTCTAACCTGTTGCCT (site ACGGTGACTAG)”, the “recombinant barcode read abundance (log10)” value came out at 2.24.

In the case of “ACGGTGACTTGGGTTCTAACCTGTTGCCT (site CCGGTGACTAG)”, the “recombinant barcode read abundance (log10)” value stood at 0.298.

Consider “ACGGTGACTTGGGTTCTAACCTGTTGCCT (site GCGGTGACTAG)”, for which the “recombinant barcode read abundance (log10)” value worked out at 0.0376.

With “ACGGTGACTTGGGTTCTAACCTGTTGCCT (site TCGGTGACTAG)”, the “recombinant barcode read abundance (log10)” value was 0.0684.

“ACGTAGACTTGGGTTCTAACCTGTTGCAG (site ACAGAGACTCT)”: the “recombinant barcode read abundance (log10)” value was 0.145.

On to “ACGTAGACTTGGGTTCTAACCTGTTGCAG (site ACGTAGACTCT)”, for which the “recombinant barcode read abundance (log10)” value stood at 0.802.

For “ACGTCCACTTGGGTTCTAACCTGTTGCCA (site ACGTCCACTTG)”, the “recombinant barcode read abundance (log10)” value was 0.148.

Turning to “ACGTCCACTTGGGTTCTAACCTGTTGCCA (site GGAAGGTCTAT)”, the “recombinant barcode read abundance (log10)” value came out at 0.025.

On to “ACGTCCACTTGGGTTCTAACCTGTTGCCT (site ACGTCCACTAG)”, for which the “recombinant barcode read abundance (log10)” value was determined as 0.0313.

In the case of “ACGTCCACTTGGGTTCTAACCTGTTGCCT (site CCGTCGACTAG)”, the “recombinant barcode read abundance (log10)” value was determined as 0.317.

As to “ACGTCGTCTTGGGTTCTAACCTGTTGCCT (site AAGTCGTCTAG)”, the “recombinant barcode read abundance (log10)” value worked out at 0.0262.

As to “ACGTCGTCTTGGGTTCTAACCTGTTGCCT (site ACGTCGTCTAG)”, the “recombinant barcode read abundance (log10)” value is 0.0697.

With “ACGTCGTCTTGGGTTCTAACCTGTTGCCT (site AGGTCGTCTAG)”, the “recombinant barcode read abundance (log10)” value was determined as 0.102.

For the sequence “ACGTCGTCTTGGGTTCTAACCTGTTGCCT (site ATGTCGTCTAG)”, the “recombinant barcode read abundance (log10)” value turned out to be 0.0865.

As to “ACGTTACCTTGGGTTCTAACCTGTTGCCT (site ACGATACCTAG)”, the “recombinant barcode read abundance (log10)” value came to 0.331.

“ACGTTACCTTGGGTTCTAACCTGTTGCCT (site ACGTTACCTAG)”: the “recombinant barcode read abundance (log10)” value is 0.501.

With “ACGTTGCCTTGGGTTCTAACCTGTTGCCT (site ACATTGCCTAG)”, the “recombinant barcode read abundance (log10)” value was 0.188.

Regarding “ACGTTGCCTTGGGTTCTAACCTGTTGCCT (site ACCTTGCCTAG)”, the “recombinant barcode read abundance (log10)” value amounted to 0.0523.

As to “ACGTTGCCTTGGGTTCTAACCTGTTGCCT (site ACGTTGCCTAG)”, the “recombinant barcode read abundance (log10)” value was found to be 0.316.

Take “ACGTTGCCTTGGGTTCTAACCTGTTGCCT (site ACTTTGCCTAG)”: the “recombinant barcode read abundance (log10)” value was 0.0271.

As for “ACTACTCCTTGGGTTCTAACCTGTTGCAG (site ACTACTCCTCT)”, the “recombinant barcode read abundance (log10)” value was 0.461.

As to “ACTACTCCTTGGGTTCTAACCTGTTGCAG (site ACTGGTCCTCT)”, the “recombinant barcode read abundance (log10)” value turned out to be 0.183.

Regarding “ACTAGAGCTTGGGTTCTAACCTGTTGCCT (site ACAAGAGCTAG)”, the “recombinant barcode read abundance (log10)” value was 0.122.

In the case of “ACTAGAGCTTGGGTTCTAACCTGTTGCCT (site ACCAGAGCTAG)”, the “recombinant barcode read abundance (log10)” value was found to be 0.268.

On to “ACTAGAGCTTGGGTTCTAACCTGTTGCCT (site ACGAGAGCTAG)”, for which the “recombinant barcode read abundance (log10)” value was 0.197.

Consider “ACTAGAGCTTGGGTTCTAACCTGTTGCCT (site ACTAGAGCTAG)”, for which the “recombinant barcode read abundance (log10)” value is 0.198.

Turning to “ACTAGCTCTTGGGTTCTAACCTGTTGCCT (site ACTAGCTCTAG)”, the “recombinant barcode read abundance (log10)” value was 0.356.

Consider “ACTAGCTCTTGGGTTCTAACCTGTTGCCT (site ACTTGCTCTAA)”, for which the “recombinant barcode read abundance (log10)” value is 0.0142.

With “ACTATGACTTGGGTTCTAACCTGTTGCTT (site ACTATGACTAA)”, the “recombinant barcode read abundance (log10)” value came out at 0.75.

Take “ACTATGACTTGGGTTCTAACCTGTTGCTT (site GACTATCCTCG)”: the “recombinant barcode read abundance (log10)” value came to 0.0905.

“ACTATGTCTTGGGTTCTAACCTGTTGCCA (site ACTATGTCTTG)”: the “recombinant barcode read abundance (log10)” value came to 0.147.

On to “ACTATGTCTTGGGTTCTAACCTGTTGCCA (site CCTATGTCTTA)”, for which the “recombinant barcode read abundance (log10)” value worked out at 0.00838.

For the sequence “ACTCAGGCTTGGGTTCTAACCTGTTGCCG (site ACAGAGGCTCG)”, the “recombinant barcode read abundance (log10)” value amounted to 0.138.

Take “ACTCAGGCTTGGGTTCTAACCTGTTGCCG (site ACTCAGGCTCG)”: the “recombinant barcode read abundance (log10)” value was 0.541.

As to “ACTCCGTCTTGGGTTCTAACCTGTTGCTA (site ACTCCGTCTTA)”, the “recombinant barcode read abundance (log10)” value came to 1.11.

With “ACTCCGTCTTGGGTTCTAACCTGTTGCTA (site GCTCCGTCTAA)”, the “recombinant barcode read abundance (log10)” value was found to be 0.0432.

As for “ACTCGACCTTGGGTTCTAACCTGTTGCCT (site ACTAGACCTAG)”, the “recombinant barcode read abundance (log10)” value worked out at 0.197.

Consider “ACTCGACCTTGGGTTCTAACCTGTTGCCT (site ACTCGACCTAG)”, for which the “recombinant barcode read abundance (log10)” value came out at 1.78.

Regarding “ACTGAGTCTTGGGTTCTAACCTGTTGCAT (site ACTGAGTCTAT)”, the “recombinant barcode read abundance (log10)” value was 2.69.

“ACTGAGTCTTGGGTTCTAACCTGTTGCAT (site ACTGAGTCTTT)”: the “recombinant barcode read abundance (log10)” value was found to be 0.109.

On to “ACTGAGTCTTGGGTTCTAACCTGTTGCTT (site ACTGAGTCTAA)”, for which the “recombinant barcode read abundance (log10)” value was 1.22.

With “ACTGAGTCTTGGGTTCTAACCTGTTGCTT (site ACTGGGTCTAA)”, the “recombinant barcode read abundance (log10)” value came to 0.0903.

For the sequence “ACTGGACCTTGGGTTCTAACCTGTTGCTT (site ACTGGACCTAA)”, the “recombinant barcode read abundance (log10)” value turned out to be 2.23.

For the sequence “ACTGGACCTTGGGTTCTAACCTGTTGCTT (site GCTGGACCTAG)”, the “recombinant barcode read abundance (log10)” value came to 0.616.

Take “ACTGGGGCTTGGGTTCTAACCTGTTGCCA (site ACTGGGGCTTG)”: the “recombinant barcode read abundance (log10)” value was found to be 0.782.

As for “ACTGGGGCTTGGGTTCTAACCTGTTGCCA (site TCTGGGGCTAG)”, the “recombinant barcode read abundance (log10)” value came out at 0.0799.

“ACTGGTCCTTGGGTTCTAACCTGTTGCAG (site ACTACTCCTCT)”: the “recombinant barcode read abundance (log10)” value stood at 0.0961.

With “ACTGGTCCTTGGGTTCTAACCTGTTGCAG (site ACTGGTCCTCT)”, the “recombinant barcode read abundance (log10)” value was 2.59.

Regarding “ACTTAGCCTTGGGTTCTAACCTGTTGCAT (site ACTTAGCCTAG)”, the “recombinant barcode read abundance (log10)” value was 1.48.

As to “ACTTAGCCTTGGGTTCTAACCTGTTGCAT (site ACTTAGCCTAT)”, the “recombinant barcode read abundance (log10)” value is 1.27.

“ACTTCGACTTGGGTTCTAACCTGTTGCCT (site AATTCGACTAG)”: the “recombinant barcode read abundance (log10)” value was found to be 0.0426.

“ACTTCGACTTGGGTTCTAACCTGTTGCCT (site ACTTCGACTAG)”: the “recombinant barcode read abundance (log10)” value came to 0.116.

Regarding “ACTTCGACTTGGGTTCTAACCTGTTGCCT (site AGTTCGACTAG)”, the “recombinant barcode read abundance (log10)” value was found to be 0.461.

With “ACTTCGACTTGGGTTCTAACCTGTTGCCT (site ATTTCGACTAG)”, the “recombinant barcode read abundance (log10)” value stood at 0.0176.
